Laboratory results from patent US7309713B2, “Use of the non-opiate analgesic drug flupirtine for the treatment of overactive bladder and associated diseases including urge incontinence, urinary flow problems as a result of prostate hyperplasia and irritable bowel syndrome” (priority 2005, dated 2007).
Where “and” joins values, the source holds several entries; their conditions need not be identical. Equal values may be shown once. Entries after “also recorded” stand apart in the source; their conditions may differ. Where a name gives a salt, the structure may show the parent alone.

Experiments:
[1] = test system: mean arterial blood pressure; assay: mean arterial blood pressure recorded in the urethane anaesthetised rats of the bladder model; details: for mean BP, change in percent from base value (Δ %) / mean BP Post (30-60 min), mean: group mean; for mean arterial blood pressure decreased by: 10 mg/kg i.d., decrease
Description: The body temperature was maintained at 37° C. by means of an heated small operating table and 2 red light heating lamps. The left carotid artery was prepared and a catheter for continuous blood pressure measurement was inserted and connected to a Statham pressure transducer (Model P23 Db) and connected with a computer-controlled physiological recorder (PMS PR 800, Mumed Systems Ltd London, GB).
For intraduodenal drug administration a polyethylene catheter was inserted into the upper part of the duodenum, about 5 cm downwards from the pylorus and fixed with a purse-string suture. Bilateral ureters were ligated proximally to the bladder to prevent the bladder filling with urine. Urine of the kidneys was drained onto cotton swabs within the abdomen. The urinary bladder was catheterised via the urethra by use of PE 50 polyethylene tubing filled with physiological saline and secured in place by a ligature at the lower part of the urethra. Using a “T”-connector, the bladder catheter was connected to a Statham pressure transducer (Model P23 Db) connected with the physiological recorder (PMS PR 800) to measure intravesicular pressure and to a Infusion pump (TSE, FRG). Continuous recordings of intravesicular pressure and arterial blood pressure were captured onto a 4 channel Linearcorder WR3310 (Western Graphtec, Inc., USA). The experiment was started infusing (0.05 ml/min) the bladder with warmed saline (37-38° C.) to evoke rhythmic bladder contractions by means an infusion pump up to a maximal volume of 1.0 ml. The infusion is stopped after reaching the final volume or with the start of rhythmic bladder contractions.

[2] = test system: volume-induced rhythmic urinary bladder contractions; assay: volume-induced rhythmic urinary bladder contractions in urethane anaesthetised rats (rat model of overactive bladder); type: in vivo, Sprague Dawley rat; details: for amplitude Post (30-60 min), mean / amplitude, change in percent from base value (Δ %) / frequency Post (20-60 min), mean / frequency, change in percent from base value (Δ %): group mean; for presence/absence of bladder contractions (block grade), individual animal: 55 min period, Table 3; for decrease in frequency, individual animal / duration of block, individual animal / increase in frequency, individual animal / number of episodes of block per animal: individual animals; for mean pressure peaks of the amplitude diminished/reduced by: reduction; for mean voiding frequency decreased by: decrease
From the text: In the search for new drugs compounds are of interest which affect the central nervous system circuits involved in micturation as well as the peripheral nerves resulting in a decrease in the frequency of the voiding reflex without any effect on bladder contractility. […] The method utilises spontaneous, volume-induced contractions of the urinary bladder in anaesthetised rats and was developed and first described by Dray (J. Pharmacol. Meth. 13:157-165, 1985) to assess the central activity of substances with opioid properties on bladder function. As this model clearly mimics the interplay between smooth muscle function and neuronal control thereof, this model can be also used to predict drug effects in a different disease, i.e. irritable bowl syndrome (IBS).
Aim of the study: To characterise the effects of the analgesic flupirtine maleate on the bladder function we used the model volume-induced contractions of urinary bladder in urethane anaesthetised rats. […] The compounds at the dose range 0.1-10 mg/kg were intraduodenally administered to anaesthetised rats. The intraduodenal route was chosen to mimic the oral route and to avoid the use of solvents necessary for intravenous administration.
• Species: Sprague Dawley rat • Sex: Female • Body weight: 200-270 g • Breeder: Charles River, Sulzfeld • Food/Tap water: pellets, ssniff M/R15, ad libitum, Spezialdiäten GmbH, Soest/Wesffalen, FRG • Conditions in animal housing: Rats were kept conventionally in groups of 6 in macrolon cages No. 4. • Room temperature: 20-24° C. • Relative humidity: 40-70%, deviations from the maximum range caused during cleaning procedure are possible • Light/Dark rhythm: 12/12 h light/dark cycle, light on at 6:00 a.m.
The food was withdrawn 16 hours before intraduodenal drug administration. Tap water was available ad libitum.
Flupirtine maleate or oxybutynin hydrochloride were suspended in hydroxyethylcellulose (0.5%) in demineralised water. The substances were ground in a mortar with pistil. The suspensions were placed on a magnetic stirrer before and during dosing procedures. The substances were freshly prepared in the morning and applied intraduodenally in a volume of 0.4 ml/100 g body weight. Control rats received hydroxyethylcellulose (0.5%) i.d.
The filling material, consisting of small globules, was ground in a mortar with pistil. Thereafter the grounded material was suspended in hydroxyethylcellulose (0.5%) in demineralised water. The suspensions were placed on a magnetic stirrer before and during dosing procedures for 10 minutes. The suspensions were freshly prepared in the morning and applied intraduodenally in a volume of 0.4 ml/100 g body weight to rats. Control rats received the same amount of hydroxyethylcellulose (0.5%) i.d.
The continuous registration lasted 1 hr. […] The frequency was evaluated for 10 min before (baseline) and within the observation period in intervals of 10 minutes starting 5, 20, 35 and 50 min after drug administration. For intraduodenal dosing, drugs were administered via a duodenal polyethylene tube to animals in aqueous suspension of 0.5% hydroxyethylcellulose.

[3] = test system: Haffner test in mice; details: p.o.; cited from earlier work
[4] = test system: Randall-Selitto test in rats; details: p.o.; cited from earlier work
[5] = test system: analgesic effect in rodents; details: p.o.; cited from earlier work
[6] = 0.1 mg/kg i.d. single dose, listed as Flupirtine maleate

## CCN(CC)CC#CCOC(=O)C(O)(c1ccccc1)C1CCCCC1 (stereo not drawn) [oxybutynin hydrochloride, (α-Phenylcyclohexaneglycolicacid 4-[diethylamino]-2-butynyl ester hydrochloride]
[1]; 0.1 mg/kg i.d. single dose
  mean BP, change in percent from base value (Δ %): −5%
[1]; 1.0 mg/kg i.d. single dose
  mean BP Post (30-60 min), mean: 80.0-85.0 mm Hg
  mean BP, change in percent from base value (Δ %): −15%
[1]; 10 mg/kg i.d. single dose
  mean BP, change in percent from base value (Δ %): −24%
[1]
  mean arterial blood pressure decreased by: 24%
[2]; 0.1 mg/kg i.d. single dose
  block X/n (animals with blockade of bladder contraction): 3/3
  block, blockade duration (group, min-max): 4 to 6 min
  amplitude Post (30-60 min), mean: 32.0-32.0 mm Hg
  amplitude, change in percent from base value (Δ %): −13%
  frequency Post (20-60 min), mean: 6.3-7.3 n/10 min
  frequency, change in percent from base value (Δ %): −12%
[2]; 0.1 mg/kg i.d.
  presence/absence of bladder contractions (block grade), individual animal: (+) (+ or (+) = contractions abolished during 5-10 min time period)
  mean pressure peaks of the amplitude diminished/reduced by: 13%
[2]; 0.1 mg/kg i.d., hydrochloride
  decrease in frequency, individual animal: decrease in frequency by 25%,; also recorded: frequency by 50%
  duration of block, individual animal: ≤ 6 min and 5 min and max. 4 min, initial increase,
  increase in frequency, individual animal: frequency by 17%; also recorded: by 9% during 5-15th min
  number of episodes of block per animal: 4 (2×) and 1
[2]; 0.1 mg/kg i.d., listed as Oxybutynin hydrochloride, hydrochloride
  number of episodes of block per animal: 1-4
[2]; 1.0 mg/kg i.d. single dose
  block X/n (animals with blockade of bladder contraction): 3/3
  amplitude, change in percent from base value (Δ %): −20%
  frequency, change in percent from base value (Δ %): −68%
[2]; 1.0 mg/kg i.d. single dose, hydrochloride
  amplitude Post (30-60 min), mean: 3/3 bl
[2]; 1.0 mg/kg i.d., hydrochloride
  presence/absence of bladder contractions (block grade), individual animal: +++ from 3 to 11th and 30 to (+++ = contractions abolished during 30-60 min time period); also recorded: ++ (++ = contractions abolished during 10-30 min time period)
  decrease in frequency, individual animal: contractions by 100%; also recorded: frequency by 62%; also recorded: by 80%
  duration of block, individual animal: 9 min and 30 min and 7 to 16 min and 4 to 11 min
  number of episodes of block per animal: 3-6 and 3 and 5
[2]; 1 mg/kg i.d.
  mean voiding frequency decreased by: 68%
  mean pressure peaks of the amplitude diminished/reduced by: 20%
[2]; 10 mg/kg i.d. single dose
  block X/n (animals with blockade of bladder contraction): 3/3
  amplitude, change in percent from base value (Δ %): −38%
  frequency, change in percent from base value (Δ %): +22%
[2]; 10 mg/kg i.d. single dose, hydrochloride
  block, blockade duration (group, min-max): 5 to 30 min
[2]; 10 mg/kg i.d. single dose, listed as Oxybutynin hydrochloride, hydrochloride
  block, blockade duration (group, min-max): 4 to 30 min
[2]; 10 mg/kg i.d., hydrochloride
  presence/absence of bladder contractions (block grade), individual animal: + (+ or (+) = contractions abolished during 5-10 min time period); also recorded: ++ (++ = contractions abolished during 10-30 min time period)
  duration of block, individual animal: 4 min (2×) and 30 min
  increase in frequency, individual animal: increase in frequency by 14%; also recorded: in frequency by 28%; also recorded: increase in frequency by 22%
  number of episodes of block per animal: 2 and 1 (2×)
[2]; 10 mg/kg i.d., increase
  mean frequency averaged over all animals increased by: 22%
[2]; 10 mg/kg i.d.
  mean pressure peaks of the amplitude diminished/reduced by: 38%
[2]; dose range 0.1-10 mg/kg i.d., generally
  reduction in the amplitude, of the basal value: no more than 60%

## CCOC(=O)Nc1ccc(NCc2ccc(F)cc2)nc1N [flupirtine maleate, [(2-Amino-6-(4-fluorophenyl)-methyl-amino-3-pyridinyl)-carbamicacid ethylester maleate]]
[1]; 0.1 mg/kg i.d. single dose
  mean BP, change in percent from base value (Δ %): −4.7%
[1]; 1.0 mg/kg i.d. single dose
  mean BP, change in percent from base value (Δ %): −6.9%
[1]; 3.0 mg/kg i.d. single dose
  mean BP, change in percent from base value (Δ %): −12%
[1]; 10 mg/kg i.d. single dose
  mean BP Post (30-60 min), mean: 79.3-83.3 mm Hg
[1]
  mean arterial blood pressure decreased by: 11%
[3]
  ED50, analgesic effect in the Haffner test: 28 mg/kg p.o.
[4]
  ED50, Randall-Selitto test: 39 mg/kg p.o.
[5]
  doses of first analgesic efficacy: 25-50 mg/kg p.o.
[2]; 0.1 mg/kg i.d. single dose
  block X/n (animals with blockade of bladder contraction): 2/3
  block, blockade duration (group, min-max): 4 to 8 min
  amplitude, change in percent from base value (Δ %): −9.0%
  frequency, change in percent from base value (Δ %): +3.4%
[2]; [6]
  amplitude, change in percent from base value (Δ %): No effect
  frequency, change in percent from base value (Δ %): No effect
  block X/n (animals with blockade of bladder contraction): 2 out of 3
[2]; 0.1 mg/kg i.d.
  presence/absence of bladder contractions (block grade), individual animal: no block; also recorded: (+) (+ or (+) = contractions abolished during 5-10 min time period)
  duration of block, individual animal: ≤ 4 min and ≤ 8 min
  number of episodes of block per animal: 1
[2]; 0.1 mg/kg i.d., listed as Flupirtine maleate
  duration of block, individual animal: 4 min and 8 min
[2]; 1.0 mg/kg i.d. single dose
  block X/n (animals with blockade of bladder contraction): 2 out of 3 and 2/3
  block, blockade duration (group, min-max): 4 to 18 min
  frequency Post (20-60 min), mean: 7.0-7.0 n/10 min
  frequency, change in percent from base value (Δ %): −8.7%
[2]; 1.0 mg/kg i.d.
  presence/absence of bladder contractions (block grade), individual animal: no block; also recorded: + (+ or (+) = contractions abolished during 5-10 min time period); also recorded: (+) (+ or (+) = contractions abolished during 5-10 min time period)
  decrease in frequency, individual animal: 17% and 23% and without influence and frequency by 17% and frequency by 23%
  duration of block, individual animal: 4 to 5 min and 16 min
  number of episodes of block per animal: 1 and 2
[2]; 3.0 mg/kg i.d. single dose
  block X/n (animals with blockade of bladder contraction): all three and 3/3
  block, blockade duration (group, min-max): 5 to 14 min
  amplitude Post (30-60 min), mean: 26.3-26.3 mm Hg
  frequency, change in percent from base value (Δ %): −40%
[2]; 3.0 mg/kg i.d.
  presence/absence of bladder contractions (block grade), individual animal: ++ (++ = contractions abolished during 10-30 min time period); also recorded: (+) (+ or (+) = contractions abolished during 5-10 min time period); also recorded: + (+ or (+) = contractions abolished during 5-10 min time period)
  decrease in frequency, individual animal: frequency by 29%; also recorded: by 50%; also recorded: frequency by 41%
  duration of block, individual animal: 14 min and block, 6 min block, starting and ≤ 5 min and 8 min
[2]; 3 mg/kg i.d.
  mean voiding frequency decreased by: 40%
[2]; 10 mg/kg i.d.
  animals with voiding contractions abolished over the whole observation period: 1/3
  presence/absence of bladder contractions (block grade), individual animal: ++ (++ = contractions abolished during 10-30 min time period); also recorded: +++ (+++ = contractions abolished during 30-60 min time period)
  mean voiding frequency decreased by: 57%
  decrease in frequency, individual animal: frequency by 68%; also recorded: in frequency by 87%; also recorded: block decrease in frequency by 57%
  duration of block, individual animal: 26 min and 29 min and 55 min and 39 min
  mean pressure peaks of the amplitude diminished/reduced by: 26%
[2]; 10 mg/kg i.d. single dose
  block X/n (animals with blockade of bladder contraction): 3/3
  block, blockade duration (group, min-max): 26 to 56 min
  amplitude, change in percent from base value (Δ %): −26%
  frequency, change in percent from base value (Δ %): −57%
[2]; rat, in vivo
  doses with therapeutic effect in the model volume-induced contractions in urinary bladder: 1-3 mg/kg p.o.
